Measurements: US20200289566A1, “COMPOSITIONS FOR IMPROVING CAR-T CELL FUNCTIONALITY AND USE THEREOF” (PROSPECT CHARTERCARE RWMC, LLC D/B/A ROGER WILLIAMS MEDICAL …, priority 2017, published 2020)

Legend:
Type in all cases: cell-based, human
IL13CAR-T cells = test: CFSE dilution T cell proliferation assay; details: 72 hours
Procedure: Carboxyfluorescein succinimidyl ester (CFSE; 0.5 μg/ml; Invitrogen) was used to measure T cell proliferation by flow cytometry.
To further understand the mechanism, CAR-T cells were stained with CFSE and were cultured either unstimulated or treated with IL13Rα2-Fc±SB216763 for 72 hours. CFSE is a fluorescent cell staining dye and can be used to monitor lymphocyte proliferation, both in vitro and in vivo, due to the progressive halving of CFSE fluorescence within daughter cells following each cell division (Lyons et al., Journal of immunological methods 171: 131-137, 1994).

[1] = tested on: IL13Rα2-Fc activated IL13CAR-T cells; test: qPCR of TBX21, PDCD1 and IFNG genes; details: normalized to GAPDH
Procedure: Total RNA was isolated from IL13CAR-T cells using the RNeasy Mini Kit according to the manufacturer's protocol (Qiagen). cDNA was prepared from RNA using iScript cDNA Synthesis Kit (Biorad, Carlsbad, Calif.). qPCR was performed targeting IFNG, TBX21, and PDCD1 genes using SyBR Green PCR master Mix (Applied Biosystems). CT values of target genes were normalized to that of housekeeping gene GAPDH, and relative gene expression was calculated using ΔΔCT method.
(§1) GSK3 inhibition reduces PD-1 mediated T cells exhaustion, which is dependent on T-bet expression (Taylor et al., Immunity 44: 274-286. 2016), and GSK3β pathway directly regulates T-bet expression in activated T cells (Verma et al., J Immunol 197: 108-118, 2016). Significant survival advantage of GSK3β inhibition in activated T cells prompted us to study T-bet and PD-1 expression in IL13Rα2-activated IL13CAR-T cells.

[2] = tested on: IL13Rα2-Fc activated IL13CAR-T cells; test: T cell survival assay (viability by flow cytometry, live-dead gating, 14 days); details: SB216763 20 μM, IL13Rα2-Fc 1 μg/ml, absence of added IL2
Procedure: (§2) Untransduced or IL13CAR-T cells (1×10^6) were activated with IL13Rα2-Fc chimera at specific concentrations in 24 well plates, with or without GSK3β inhibitor (SB216763, 20 μM; Sigma, St Louis, Mo.) or added IL2 in the culture medium. IL13CAR-T cell survival assays were performed as described above for 14 days. Long-time survival of IL13CAR-T cells following GSK3β inhibition was measured by flow cytometry using live-dead gating (Sengupta et al., Immunobiology 210: 647-659, 2005). Activated T cell death (ATCD) was measured by flow cytometric reading of FasL expression (FITC; Thermo-Fisher) on activated IL13CAR-T cells.
IL13CAR-T cells (32% CAR+) were cultured for 14 days in the presence of soluble IL13Rα2-Fc (1 μg/ml) and GSK3β inhibitor (SB216763; 20 μM) in RPMI1640 medium supplemented with 10% FBS and antibiotics, with or without added IL2. Cells were harvested at days 1, 4, 7, 10 and 14 and stained for CD3 and IL13CAR expression, and viability of cells were measured by flow cytometry and analyzed for viability as described earlier. […] The loss in viability was rescued by addition of IL2 in culture conditions (FIG. 1A; Top Panel; close squares) or inhibition of GSK3β with SB216763 in absence of added IL2 (FIG. 1A; Bottom Panel; open squares). […] To confirm this phenomenon FasL expression was measured in IL13Rα2-Fc treated CAR-T cells at day 14. […]

[3] = tested on: IL13Rα2-Fc activated IL13CAR-T cells; test: T cell memory marker expression by flow cytometry; details: 7 days
Procedure: (§3) Purified rat anti-human IL13 antibody and allophycocyanin (APC)-conjugated anti-rat antibody was used to measure IL13CAR expression. Anti-human CD3-FITC was used in certain experiments for identifying T cells. For CD4:CD8 analysis of IL13CAR-T cells, anti-human CD4-FITC and anti-human CD8-PE.Cy7 were used in CAR-T cells that were positive for IL13CAR expression. FasL expression and PD-1 expression on activated IL13CAR-T cells was measured by staining with anti-human FasL-FITC (Thermo-Fisher) anti-human PD1-FITC respectively. Anti-human CD127-FITC, anti-human CD62L-PE, Anti-human CCR7-FITC anti-human CD45RO-PE and anti-human CD45RA-PE.Cy7 were used for flow cytometric measurement of T cell memory marker. Respective isotype controls or antibody controls (where applicable) were used to draw positive gates for each experiment. All antibodies were procured from either BD Biosciences or eBisociences. For intranuclear staining of β-catenin localization, nuclear permeabilization of CAR-T cells was achieved using FoxP3 staining buffer (eBioscience-Affymetrix, San Diego, Calif.) and staining with anti-human β-catenin rabbit mAb (Cell Signaling Technologies, Danvers Mass.) and anti-rabbit IgG conjugated with Alexa Fluor (AF) 488 or 647 (Cell Signaling Technologies).
Experiments were conducted to test the effects of SB216763 treatment on memory generation in IL13Rα2-Fc activated IL13CAR-T populations. IL13CAR-T cells were activated with increasing concentrations of IL13Rα2-Fc (0-1 μg/ml) in the presence or absence of SB216763 for 7 days. Cell surface expression of T cell memory markers were measured by flow cytometry. Since memory generation was monitored as a functional derivative of CD8+ T cells, experiments were conducted to additionally measure the intracellular expression of IL7R (CD127) expression as a marker of CD8+ memory CAR-T cell homeostasis.

[4] = tested on: IL13Rα2-Fc activated IL13CAR-T cells; test: Activated T cell death (ATCD): flow cytometric FasL expression
Procedure: Purified rat anti-human IL13 antibody and allophycocyanin (APC)-conjugated anti-rat antibody was used to measure IL13CAR expression. Anti-human CD3-FITC was used in certain experiments for identifying T cells. For CD4:CD8 analysis of IL13CAR-T cells, anti-human CD4-FITC and anti-human CD8-PE.Cy7 were used in CAR-T cells that were positive for IL13CAR expression. FasL expression and PD-1 expression on activated IL13CAR-T cells was measured by staining with anti-human FasL-FITC (Thermo-Fisher) anti-human PD1-FITC respectively. […]
as §2, with “IL13CAR-T cell survival assays were performed as described above for 14 days.” left out
IL13CAR-T cells (32% CAR+) were cultured for 14 days in the presence of soluble IL13Rα2-Fc (1 μg/ml) and GSK3β inhibitor (SB216763; 20 μM) in RPMI1640 medium supplemented with 10% FBS and antibiotics, with or without added IL2. […] To confirm this phenomenon FasL expression was measured in IL13Rα2-Fc treated CAR-T cells at day 14. […]

[5] = tested on: IL13Rα2-Fc activated CAR-T cells; test: Intranuclear β-catenin accumulation by flow cytometry; details: 36-48 hours
Procedure: as §3, with “For intranuclear staining of β-catenin localization, nuclear permeabilization of CAR-T cells was achieved using FoxP3 staining buffer (eBioscience-Affymetrix, San Diego, Calif.) and staining with anti-human β-catenin rabbit mAb (Cell Signaling Technologies, Danvers Mass.) and anti-rabbit IgG conjugated with Alexa Fluor (AF) 488 or 647 (Cell Signaling Technologies).” left out
Experiments were conducted to understand the molecular mechanism of GSK3β-inhibition on activated T cell expansion. […] IL13Rα2-Fc activated CAR-T cells were treated with or without SB216763 for 36-48 hours and measured for intra-nuclear accumulation of β-catenin by flow cytometry. […]

[6] = tested on: IL13Rα2-activated IL13CAR-T cells; test: Flow cytometry of T-bet and PD-1 expression
Procedure: as §3, §1

Cn1cc(C2=C(c3ccc(Cl)cc3Cl)C(=O)NC2=O)c2ccccc21 [SB216763, 3-(2,4-Dichlorophenyl)-4-(1-methyl-1H-indol-3yl)-1H-pyrrole-2,5-dione]
proliferation of IL13Rα2-Fc activated CAR-T cells (IL13CAR-T cells): increased proliferation | proliferation of unstimulated CAR-T cells (IL13CAR-T cells): no such efforts | decrease in PDCD1 (PD-1) gene expression [1]: 5 fold | increase in TBX21 (T-bet) gene expression [1]: 90 fold | loss in viability of activated IL13CAR-T cells [2]: rescued | CCR7 expression [3]: no difference | CD45RA expression [3]: no difference | CD62L expression [3]: complete inhibition | increase in CD45RO ([3]; IL13Rα2-Fc 0-1 μg/ml): 4 fold | increase in CD127 ([3]; IL13Rα2-Fc 0-1 μg/ml): 10 fold | frequency of activated CAR-T cells expressing FasL ([4]; day 14, SB216763 treated): 25.3% | reduction of FasL expression ([4]; day 14, versus activated CAR-T cells not treated with the inhibitor): 55% | nuclear β-catenin MFI ([5]; SB216763 treated): 1618 MFI | increased accumulation of β-catenin in the nucleus ([5]; versus untreated activated CAR-T cells): 66% | T-bet expression (FACS) ([6]; activated IL13CAR-T cells, GSK3β inhibition): significant upregulation | frequency of PD-1+ IL13CAR-T cells ([6]; activated, GSK3β inhibited): 17.3% | reduction in PD-1 expression ([6]; versus activated IL13CAR-T cells not treated): 60%
